The source of these data is patent publication US20170014407A1, “PYRIDAZINE DERIVATIVES FOR USE IN THE PREVENTON OR TREATMENT OF AN ATAXIC DISORDER” (TAKEDA PHARMACEUTICAL COMPANY LIMITED, priority 2014, published 2017).

Test [1] has as its system mice carrying inherited or chemically-induced ataxia mutations. Conditions: Saigoh et al. 1998, cited from earlier work; for Concentration of endogenous D-serine in the cerebellum: ataxic mutant mice; for Effect on ataxia: mice carrying inherited or chemically-induced ataxia mutations.
In test [2] the test system is C57B16 mice. Briefly: Delayed eyeblink conditioning test (dEBC). Format: in vivo, mouse. The note with it: Group E, scopolamine 0.3 mg/kg subcutaneous. An excerpt:
Three-month old, male C57B16 mice were implanted with recording electrodes in the orbicularis oculi muscle and with stimulating electrodes on the supraorbital nerve. For classical conditioning, animals were presented with a 350-ms tone as a conditioned stimulus (CS) at the end of which received an electrical pulse in the supraorbital nerve as unconditioned stimulus (US). Classical conditioning was achieved using a delay paradigm. For this, a tone (350 ms, 2 kHz, 85-90 dB) was presented as CS. The US consisted of a paired pulse with 1 millisecond of inter-pulse interval. Each pulse lasted for 0.1 millisecond. The US was presented at the end of the CS. A total of two habituation, ten conditioning, and five extinction sessions were carried out for each animal. Further details of this method can be found in the article by Gruart A., “Involvement of the CA3-CA1 synapse in the acquisition of associative learning in behaving mice”, J. Neurosci., 2006, 26, 1077-1087.
The effects on associative learning of a DAAO inhibitor compound of the invention were compared against different control and scopolamine-administered groups. Scopolamine is io a non-selective muscarinic receptor antagonist shown to consistently produce impairment of learning in rodents (see Klinkenberg, A., “The validity of scopolamine as a pharmacological model for cognitive impairment: A review of animal behavioral studies” Neuroscience and Biobehavioral Reviews, 2010, 34, 1307-1350.
is Nine groups, each containing 15 mice except for the untreated control group which contained 14 mice, were tested:
Group A was orally administered with Vehicle 1 (an aqueous solution of 0.5% methyl cellulose);
Group B was orally administered with a solution of a DAAO inhibitor of formula (I) in Vehicle 1 at a dose of 0.1 mg/kg (Solution 1);
Group C was orally administered with a solution of a DAAO inhibitor of formula (I) (the same one as for Group B) in Vehicle 1 at a dose of 1.0 mg/kg (Solution 2);
Group D was administered subcutaneously with Vehicle 2 (distilled water);
Group E was administered subcutaneously with a solution of scopolamine in Vehicle 2 at a dose of 0.3 mg/kg (Solution 3);
Group F was administered orally with Solution 1 and subcutaneously with Solution 3;
Group G was administered orally with Solution 2 and subcutaneously with Solution 3;
Group H was administered orally with Vehicle 1 and subcutaneously with Vehicle 2;
Group I was the untreated control group.

`N[C@@H]1CONC1=O` [D-cycloserine]: in test [1], the “Concentration of endogenous D-serine in the cerebellum” value is listed as “increase in the concentration of endogenous D-serine in the cerebellum” and the Effect on ataxia entry is listed as “ameliorating effect on ataxia”.
On to `CCOC(=O)[C@H](N)CO` [D-serine ethylester], for which, in test [1], the “Concentration of endogenous D-serine in the cerebellum” value is “increase in the concentration of endogenous D-serine in the cerebellum” and the Effect on ataxia result was “ameliorating effect on ataxia”.
For the compound `CN1[C@@H]2C[C@@H](OC(=O)[C@H](CO)c3ccccc3)C[C@H]1[C@@H]1O[C@@H]12` [scopolamine], the “Mean Percentage of Conditioned Responses (%)” value (“Mean Percentage … (%)” for short) turned out to be 37.67% in test [2] (conditioning session 1); 40.33% in test [2] (conditioning session 2); 43.78% in test [2] (conditioning session 3); 43.33% in test [2] (conditioning session 4); 45.67% in test [2] (conditioning session 5); 45.98% in test [2] (conditioning session 6). In addition, the “Mean Percentage … (%)” value was determined as 48.78% in test [2] (conditioning session 7); 51.56% in test [2] (conditioning session 8); 51.33% in test [2] (conditioning session 9); 52.56% in test [2] (conditioning session 10); 51.22% in test [2] (extinction session 1); 45.78% in test [2] (extinction session 2). In addition, the “Mean Percentage … (%)” value in test [2] (extinction session 3) came out at 43.78%; in test [2] (extinction session 4), 42.00%; in test [2] (extinction session 5) it was 43.22%; in test [2] (habituation session 1) it was 26.44%; in test [2] (habituation session 2) it was 27.44%.
